What was measured:
Assay in all cases: drug sensitivity score (DSS) (DSS (unitless, 0-50 scale)); higher = more sensitive (stronger viability inhibition); extreme values may be limits of the assay
Details in all cases: 72 h; culture: 2D
[1] = test system: SK-MEL-28
Method in brief: (§1)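 Drug sensitivity scores, modified area-under-curve measures, were derived from dose-response curves fitted in the in-house Breeze software. The curves came from melanoma cell lines and patient-derived melanoma cultures (1000–1500 cells per well) grown in 2D in 384-well plates holding a 527-compound oncology library. Each compound was dissolved in DMSO or water and tested at five concentrations across a 10,000-fold range. Viability was read by CellTiter-Glo luminescence after 72 h at 37 °C.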

[2] = test system: SK-MEL-2
Method in brief: as §1

[3] = test system: FM-MEL-3
Method in brief: as §1

[4] = test system: WM852
Method in brief: as §1

[5] = test system: WM165
Method in brief: as §1

[6] = test system: FM-MEL-2
Method in brief: as §1

[7] = test system: Bowes
Method in brief: as §1

[8] = test system: FM-MEL-6
Method in brief: as §1

| SMILES | drug sensitivity score [1] | drug sensitivity score [2] | drug sensitivity score [3] | drug sensitivity score [4] | drug sensitivity score [5] | drug sensitivity score [6] | drug sensitivity score [7] | drug sensitivity score [8] |
| --- | --- | --- | --- | --- | --- | --- | --- | --- |
| COc1cc(C)c(/C=C/C(C)=C/C=C/C(C)=C/C(=O)O)c(C)c1C [Acitretin] | 0 | 0 | 1.3 | 0 | 0 | 0 | 2.6 | 1.6 |
| CN(C)C/C=C/C(=O)Nc1cc2c(Nc3ccc(F)c(Cl)c3)ncnc2cc1O[C@H]1CCOC1 [Afatinib] | 0 | 0 | 0.5 | 0 | 0 | 0 | 2.2 | 0.3 |
| Cn1ncc(Cl)c1-c1cc(C(=O)N[C@H](CN)Cc2cccc(F)c2)sc1Cl [Afuresertib] | 1 | 0 | 1.9 | 0.5 | 1.5 | 1.5 | 0 | 2.3 |
| COc1cccc2c1C(=O)c1c(O)c3c(c(O)c1C2=O)C[C@@](O)(/C(CO)=N/NC(=O)CCCCCN1C(=O)C=CC1=O)C[C@@H]3O[C@H]1C[C@H](N)[C@H](O)[C@H](C)O1 [Aldoxorubicin] | 8.8 | 6.3 | 8 | 5.8 | 15.2 | 6.4 | 4.3 | 8.6 |
| CCc1cc2c(cc1N1CCC(N3CCOCC3)CC1)C(C)(C)c1[nH]c3cc(C#N)ccc3c1C2=O [Alectinib] | 0 | 0 | 0 | 0 | 0.2 | 0.6 | 0 | 0 |
| COc1cc(Nc2ncc3c(n2)-c2ccc(Cl)cc2C(c2c(F)cccc2OC)=NC3)ccc1C(=O)O [Alisertib] | 3.2 | 0 | 3.1 | 0 | 13.7 | 0.5 | 18.5 | 0.5 |
| Oc1ncnc2[nH]ncc12 [Allopurinol] | 0 | 0 | 0 | 0 | 0 | 0 | 0 | 0 |
| Cc1nc(NC(=O)N2CCC[C@H]2C(N)=O)sc1-c1ccnc(C(C)(C)C(F)(F)F)c1 [Alpelisib] | 1.2 | 0 | 2.7 | 1.9 | 0.6 | 2.1 | 0.3 | 0.7 |
| O=C(Nc1cc(Oc2cc(F)c(NC(=O)C3(C(=O)Nc4ccc(F)cc4)CC3)cc2F)ccn1)C1CC1 [Altiratinib] | 0 | 0 | 9 | 6.1 | 5 | 6.2 | 6.4 | 7.7 |
| CN1CC[C@H](c2c(O)cc(O)c3c(=O)cc(-c4ccccc4Cl)oc23)[C@H](O)C1 [Alvocidib] | 18.1 | 16.9 | 18.6 | 16.4 | 20.4 | 12.6 | 19.9 | 17.7 |
| CCN(CC)CCNC(=O)c1c(C)[nH]c(/C=C2\C(=O)Nc3ccc(-c4csc(-c5ccccc5)n4)cc32)c1C [Amcasertib] | 1.9 | 0 | 4.1 | 8.2 | 4.5 | 7.4 | 0.2 | 8.8 |
| CCC1(c2ccc(N)cc2)CCC(=O)NC1=O (stereo not given) [Aminoglutethimide] | 0 | 0 | 0 | 0 | 0 | 0 | 0 | 0 |
| COc1cc(NS(C)(=O)=O)ccc1Nc1c2ccccc2nc2ccccc12 [Amsacrine] | 6.4 | 2.8 | 5.8 | 0 | 16.9 | 4.9 | 0.5 | 5.5 |
| S=C(NCc1ccc2c(c1)OCO2)N1CCN(c2ncnc3c2oc2ccccc23)CC1 [Amuvatinib] | 0 | 0 | 4.9 | 6.6 | 1.2 | 0 | 3.9 | 0 |
| O=C1CN2Cc3c(ccc(Cl)c3Cl)N=C2N1 [Anagrelide] | 0 | 0 | 1.8 | 0 | 0 | 0 | 9.6 | 0 |
| CC(C)(C#N)c1cc(Cn2cncn2)cc(C(C)(C)C#N)c1 [Anastrozole] | 0 | 0 | 0 | 0 | 0 | 0 | 0 | 0 |
| CNC(=O)c1ccc(N2C(=S)N(c3cnc(C#N)c(C(F)(F)F)c3)C(=O)C23CCC3)cc1F [Apalutamide] | 0 | 0 | 0 | 0 | 0 | 0 | 0 | 0 |
| N#CC1(c2ccc(NC(=O)c3cccnc3NCc3ccncc3)cc2)CCCC1 [Apatinib] | 0 | 0 | 0 | 0 | 0 | 0.1 | 0 | 0 |
| O=C(Nc1ccc(OC(F)(F)Cl)cc1)c1cnc(N2CC[C@@H](O)C2)c(-c2cc[nH]n2)c1 [Asciminib] | 0 | 0 | 0.1 | 0.3 | 0 | 0.6 | 0 | 0 |
| CC(C)c1c(C(=O)Nc2ccccc2)c(-c2ccccc2)c(-c2ccc(F)cc2)n1CC[C@@H](O)C[C@@H](O)CC(=O)O [Atorvastatin] | 1 | 1.1 | 1.5 | 4.4 | 7.6 | 0 | 5.8 | 0 |

| SMILES | drug sensitivity score [1] | drug sensitivity score [2] | drug sensitivity score [3] | drug sensitivity score [4] | drug sensitivity score [5] | drug sensitivity score [6] | drug sensitivity score [7] | drug sensitivity score [8] |
| --- | --- | --- | --- | --- | --- | --- | --- | --- |
| CC(=O)OC[C@H]1O[C@@H]([S-])[C@H](OC(C)=O)[C@@H](OC(C)=O)[C@@H]1OC(C)=O.CCP(CC)CC.[Au+] [Auranofin] | 3.2 | 3.7 | 9 | 5.6 | 9.5 | 0.5 | 12.4 | 2.6 |
| CNC(=O)c1ccccc1Sc1ccc2c(/C=C/c3ccccn3)n[nH]c2c1 [Axitinib] | 0.1 | 0 | 2.6 | 0.1 | 4.6 | 2.1 | 0.1 | 0 |
| Nc1ncn([C@@H]2O[C@H](CO)[C@@H](O)[C@H]2O)c(=O)n1 [Azacitidine] | 0.4 | 1.6 | 8.6 | 0.1 | 4.2 | 3.1 | 2.6 | 4.7 |
| Cc1cc(-c2nc(-c3ccc(OC(F)(F)F)cc3)no2)nn1Cc1ccnc(N2CCN(C3CC3)CC2)c1 [BAY 87-2243] | 1.6 | 0 | 6.6 | 25.9 | 5.5 | 0.2 | 12.3 | 0 |
| Nc1nc(Nc2ccc3c(c2)CC[C@@H](N2CCCC2)CC3)nn1-c1cc2c(nn1)-c1ccccc1CCC2 [BGB324] | 6.7 | 5.6 | 5 | 6.9 | 5.7 | 2.6 | 3.2 | 5.4 |
| O=C1CCc2c(Oc3ccc4c(c3)[C@@H]3[C@H](O4)[C@H]3c3nc4cc(C(F)(F)F)ccc4[nH]3)ccnc2N1 [BGB-283] | 16.5 | 7.4 | 16.5 | 4.5 | 15.6 | 12.1 | 4 | 6.2 |
| CC[C@@H]1C(=O)N(C)c2cnc(Nc3ccc(C(=O)NC4CCN(C)CC4)cc3OC)nc2N1C1CCCC1 [BI 2536] | 3.5 | 10.5 | 4.3 | 18 | 19.6 | 1.7 | 19.7 | 6.7 |
| COc1c(C)cnc(Cn2cnc3c(Cl)nc(N)nc32)c1C [BIIB021] | 8.9 | 10.9 | 15.5 | 8.7 | 17.5 | 11.6 | 13.2 | 7.8 |
| CC1(C)C(C(=O)Nc2ccc(S(=O)(=O)c3ccc(NC(=O)C4C(C)(C)C4(C)C)cc3)cc2)C1(C)C [BRD7116] | 0 | 0 | 0.6 | 0 | 0 | 2.1 | 0.1 | 0 |
| O=C(Nc1cccc(Nc2ncc(Br)c(NCCc3cnc[nH]3)n2)c1)N1CCCC1 [BX-912] | 1.9 | 0 | 0.9 | 1.9 | 8.2 | 5.9 | 5.6 | 0.5 |
| Cc1ccc(NC(=O)c2ccc(CN3CC[C@H](N(C)C)C3)c(C(F)(F)F)c2)cc1Nc1nccc(-c2cncnc2)n1 [Bafetinib] | 1.3 | 0 | 1.7 | 0 | 2.9 | 2.3 | 0 | 0 |
| CCS(=O)(=O)N1CC(CC#N)(n2cc(-c3ncnc4[nH]ccc34)cn2)C1 [Baricitinib] | 0 | 0 | 0 | 0 | 0 | 0 | 0 | 0 |
| O=C(/C=C/c1cccc(S(=O)(=O)Nc2ccccc2)c1)NO [Belinostat] | 10.6 | 13.6 | 12.5 | 5.7 | 17.7 | 9.4 | 7.9 | 13.9 |
| N#CC(c1ccnc(OCc2ccc(CN3CCOCC3)cc2)n1)c1nc2ccccc2s1 (stereo not given) [Bentamapimod] | 0.8 | 0 | 5.9 | 0.1 | 1.1 | 3.9 | 1.4 | 2.8 |
| C=C(c1ccc(C(=O)O)cc1)c1cc2c(cc1C)C(C)(C)CCC2(C)C [Bexarotene] | 2.3 | 0 | 2.9 | 0 | 0 | 1.3 | 0 | 0.4 |
| CC(O)(CS(=O)(=O)c1ccc(F)cc1)C(=O)Nc1ccc(C#N)c(C(F)(F)F)c1 (stereo not given) [Bicalutamide] | 0.1 | 0 | 1.7 | 0.8 | 0 | 0 | 0 | 0 |
| CCNC(=O)CCC/C=C\C[C@@H]1[C@@H](/C=C/[C@@H](O)CCc2ccccc2)[C@H](O)C[C@@H]1O [Bimatoprost] | 0 | 0 | 0 | 0 | 0 | 0 | 0 | 0 |
| Cc1sc2c(c1C)C(c1ccc(Cl)cc1)=N[C@@H](CC(=O)Nc1ccc(O)cc1)c1nnc(C)n1-2 [Birabresib] | 2.9 | 0 | 7.6 | 0 | 12.1 | 6.2 | 4.5 | 6.7 |
| CC[C@H](NC(=O)[C@H](C)NC)C(=O)N1C[C@@H](O)C[C@H]1Cc1c(-c2[nH]c3cc(F)ccc3c2C[C@@H]2C[C@H](O)CN2C(=O)[C@H](CC)NC(=O)[C@H](C)NC)[nH]c2cc(F)ccc12 [Birinapant] | 0 | 3.9 | 1.4 | 0 | 0 | 8 | 0 | 3 |
| Cc1c(N)nc([C@H](CC(N)=O)NC[C@H](N)C(N)=O)nc1C(=O)N[C@H](C(=O)N[C@H](C)[C@@H](O)[C@H](C)C(=O)N[C@H](C(=O)NCCc1nc(-c2nc(C(=O)NCCC[S+](C)C)cs2)cs1)[C@@H](C)O)[C@@H](OC1OC(CO)C(O)C(O)C1OC1OC(CO)C(O)C(OC(N)=O)C1O)c1cnc[nH]1 (stereo not given in full) [Bleomycin] | 1.8 | 0 | 5 | 0 | 9.4 | 2.4 | 0.9 | 2.1 |

From the supplement of paper PMC8633005
